In patent US20240208992A1, “MACROCYCLES AS CFTR MODULATORS” (Idorsia Pharmaceuticals Ltd, priority 2021, published 2024):

Molecular target: human F508del-CFTR (Homo sapiens, UniProt P13569, DEL508-508)
Experiment: F508del-CFTR cell surface expression (corrector activity), DiscoveRx ß-galactosidase complementation chemiluminescence assay in recombinant U2OS cell line;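 further: U2OS cells co-expressing ProLink-tagged F508del-CFTR and a membrane-anchored enzyme acceptor, where more surface CFTR restores β-galactosidase activity measured by chemiluminescence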
Conditions: for EC50: EC50, F508del-CFTR cell surface expression
[1] = U2OS cell line, 16h compound incubation, geomean values
[2] = U2OS, in relation to the Emax of the corrector lumacaftor (=100%), U2OS cell line, 16h compound incubation, arithmetic mean values
[3] = U2OS cells, 16h compound incubation, geomean values
[4] = U2OS, in relation to Emax of corrector lumacaftor (=100%), arithmetic mean values
[5] = U2OS cells, 16h compound incubation, geomean of several measurements
[6] = U2OS, in relation to the Emax of the corrector lumacaftor (=100%), U2OS cells, 16h compound incubation, arithmetic mean

human F508del-CFTR, sequence (P13569 with tags, fused parts or gaps DEL508-508): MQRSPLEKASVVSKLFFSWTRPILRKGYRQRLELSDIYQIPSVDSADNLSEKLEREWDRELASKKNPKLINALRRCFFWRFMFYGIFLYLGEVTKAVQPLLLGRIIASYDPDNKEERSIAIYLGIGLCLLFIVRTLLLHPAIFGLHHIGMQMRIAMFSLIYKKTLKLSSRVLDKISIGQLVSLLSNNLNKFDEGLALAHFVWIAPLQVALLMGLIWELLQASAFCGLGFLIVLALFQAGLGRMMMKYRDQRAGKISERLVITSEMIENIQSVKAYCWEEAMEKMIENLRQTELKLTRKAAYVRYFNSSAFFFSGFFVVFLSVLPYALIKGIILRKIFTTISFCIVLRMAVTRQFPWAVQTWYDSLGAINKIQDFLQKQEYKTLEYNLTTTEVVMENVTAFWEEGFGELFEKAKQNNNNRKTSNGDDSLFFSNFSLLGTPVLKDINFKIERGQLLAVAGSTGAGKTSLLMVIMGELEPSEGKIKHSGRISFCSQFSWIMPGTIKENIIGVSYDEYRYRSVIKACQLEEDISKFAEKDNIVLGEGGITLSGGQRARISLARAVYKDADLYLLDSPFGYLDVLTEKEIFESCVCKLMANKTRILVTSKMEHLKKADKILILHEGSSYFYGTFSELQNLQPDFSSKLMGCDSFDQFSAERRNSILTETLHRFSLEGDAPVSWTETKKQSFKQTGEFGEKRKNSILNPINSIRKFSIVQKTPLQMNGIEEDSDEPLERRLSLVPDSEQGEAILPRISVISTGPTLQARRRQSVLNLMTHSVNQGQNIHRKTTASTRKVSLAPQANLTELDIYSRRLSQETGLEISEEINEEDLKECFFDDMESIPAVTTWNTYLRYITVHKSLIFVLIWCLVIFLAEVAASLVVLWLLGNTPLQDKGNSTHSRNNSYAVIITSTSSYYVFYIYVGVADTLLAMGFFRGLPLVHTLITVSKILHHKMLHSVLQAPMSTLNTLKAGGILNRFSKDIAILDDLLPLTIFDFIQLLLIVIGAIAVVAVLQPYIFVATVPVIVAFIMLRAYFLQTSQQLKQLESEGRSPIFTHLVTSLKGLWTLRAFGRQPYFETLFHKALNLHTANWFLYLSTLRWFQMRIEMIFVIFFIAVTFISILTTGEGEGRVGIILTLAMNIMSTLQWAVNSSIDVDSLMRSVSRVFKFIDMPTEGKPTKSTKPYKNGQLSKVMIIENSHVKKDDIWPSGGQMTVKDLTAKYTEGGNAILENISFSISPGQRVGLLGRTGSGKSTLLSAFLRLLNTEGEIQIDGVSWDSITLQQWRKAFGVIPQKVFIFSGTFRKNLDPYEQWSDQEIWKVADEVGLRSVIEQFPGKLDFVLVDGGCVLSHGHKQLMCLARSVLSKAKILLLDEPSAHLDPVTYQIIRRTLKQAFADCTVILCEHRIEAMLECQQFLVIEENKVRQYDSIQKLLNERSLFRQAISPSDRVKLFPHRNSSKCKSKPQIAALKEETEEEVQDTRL

Row | Structure (SMILES) | EC50 [1] [nM] | Emax [2] [%] | EC50 [5] [nM] | Emax [6] [%] | also measured
1 | CC(C)C[C@H]1C(=O)N(C)C2(CC2)C(=O)N[C@H](Cc2ccccc2)COc2cnc3ccccc3c2C(=O)N[C@H](C(=O)NCCc2noc(C(C)(C)C)n2)CC(=O)N1C [Example 116, (3′S,7′S,13′R)-13′-benzyl-N-(2-(5-(tert-butyl)-1,2,4-oxadiazol-3-yl)ethyl)-7′-isobutyl-6′,9′-dimethyl-1′,5′,8′,11′-tetraoxo-2′,3′,4′,5′,6′,7′,8′,9′,11′,12′,13′,14′-dodecahydro-1′H-spiro[cyclopropane-1,10′-[1]oxa[4,7,10,14]tetraazacycloheptadecino[17,16-c]quinoline]-3′-carboxamide] | 554 | 253 | – | – | –
2 | Cc1nc(CCNC(=O)[C@@H]2CC(=O)N(C)[C@@H](CC(C)C)C(=O)N3CCCC[C@@H]3C(=O)N[C@H](Cc3ccccc3)COc3cnc4ccccc4c3C(=O)N2)no1 [Example 78, (9S,13S,19aR,22R)-22-benzyl-13-isobutyl-12-methyl-N-(2-(5-methyl-1,2,4-oxadiazol-3-yl)ethyl)-7,11,14,20-tetraoxo-7,8,9,10,11,12,13,14,17,18,19,19a,20,21,22,23-hexadecahydro-16H-pyrido[2′,1′:6,7][1]oxa[4,7,10,14]tetraazacycloheptadecino[17,16-c]quinoline-9-carboxamide] | 544 | 277 | – | – | –
3 | Cc1cc(CCNC(=O)[C@@H]2CC(=O)N(C)[C@@H](CC(C)C)C(=O)N3CCCC[C@@H]3C(=O)N[C@H](Cc3ccccc3)COc3ccc4ncccc4c3C(=O)N2)on1 [Example 474, (9S,13S,19aR,22R)-22-benzyl-13-isobutyl-12-methyl-N-(2-(3-methylisoxazol-5-yl)ethyl)-7,11,14,20-tetraoxo-7,8,9,10,11,12,13,14,17,18,19,19a,20,21,22,23-hexadecahydro-16H-pyrido[2′,11:6,7][1]oxa[4,7,10,14]tetraazacycloheptadecino[16,17-f]quinoline-9-carboxamide] | – | – | – | – | EC50 [3]: 478 nM; Emax [4]: 359%
4 | COc1noc(CCNC(=O)[C@@H]2CC(=O)N(C)[C@@H](CC(C)C)C(=O)N(C)[C@H](CC(F)F)C(=O)N[C@H](Cc3ccccc3)COc3ccc4ncc(F)cc4c3C(=O)N2)n1 [Example 947, (3S,7S,10R,13R)-13-benzyl-10-(2,2-difluoroethyl)-20-fluoro-7-isobutyl-N-(2-(3-methoxy-1,2,4-oxadiazol-5-yl)ethyl)-6,9-dimethyl-1,5,8,11-tetraoxo-1,2,3,4,5,6,7,8,9,10,11,12,13,14-tetradecahydro-[1]oxa[4,7,10,14]tetraazacycloheptadecino[16,17-f]quinoline-3-carboxamide] | – | – | 281 | 458 | –
5 | [2H]C1([2H])Oc2ccc3c(c2O1)C(=O)N[C@H](C(=O)NCCc1cccc(OC)c1)CC(=O)N(C)[C@@H](CC(C)C)C(=O)N(C)CC(=O)N[C@H](Cc1ccccc1)CO3 [Example 324, (8R,14S,18S)-8-benzyl-14-isobutyl-N-(3-methoxyphenethyl)-12,15-dimethyl-10,13,16,20-tetraoxo-7,8,9,10,11,12,13,14,15,16,17,18,19,20-tetradecahydro-[1,3]dioxolo[4′,5′:5,6]benzo[1,2-p][1]oxa[4,7,10,14]tetraazacycloheptadecine-2,2-d2-18-carboxamide] | 666 | 247 | – | – | –
6 | CC(C)C[C@H]1C(=O)N2CCCC[C@@H]2C(=O)N[C@H](Cc2ccccc2)COc2ccc3ncc(F)cc3c2C(=O)N[C@H](C(=O)NCCc2cc(C3CC3)on2)CC(=O)N1C [Example 781, (9S,13S,19aR,22R)-22-benzyl-N-(2-(5-cyclopropylisoxazol-3-yl)ethyl)-5-fluoro-13-isobutyl-12-methyl-7,11,14,20-tetraoxo-7,8,9,10,11,12,13,14,17,18,19,19a,20,21,22,23-hexadecahydro-16H-pyrido[2′,1′:6,7][1]oxa[4,7,10,14]tetraazacycloheptadecino[16,17-f]quinoline-9-carboxamide] | – | – | – | – | EC50 [3]: 124 nM; Emax [4]: 296%
7 | CCOCC[C@@H]1C(=O)N[C@H](Cc2ccccc2)COc2ccc3cnc(C)cc3c2C(=O)N[C@H](C(=O)NCCn2nnc(C3CC3)n2)CC(=O)N(C)[C@@H](CC(C)C)C(=O)N1C [Example 915, (3S,7S,10R,13R)-13-benzyl-N-(2-(5-cyclopropyl-2H-tetrazol-2-yl)ethyl)-10-(2-ethoxyethyl)-7-isobutyl-6,9,20-trimethyl-1,5,8,11-tetraoxo-1,2,3,4,5,6,7,8,9,10,11,12,13,14-tetradecahydro-[1]oxa[4,7,10,14]tetraazacycloheptadecino[16,17-f]isoquinoline-3-carboxamide] | – | – | 334 | 361 | –
8 | Cc1noc(CC[C@@H]2C(=O)N[C@H](Cc3ccccc3)COc3cnc4ccc(F)cc4c3C(=O)N[C@H](C(=O)NCCc3noc(C4CC4)n3)CC(=O)N(C)[C@@H](CC(C)C)C(=O)N2C)n1 [Example 851, (3S,7S,10R,13R)-13-benzyl-N-(2-(5-cyclopropyl-1,2,4-oxadiazol-3-yl)ethyl)-20-fluoro-7-isobutyl-6,9-dimethyl-10-(2-(3-methyl-1,2,4-oxadiazol-5-yl)ethyl)-1,5,8,11-tetraoxo-1,2,3,4,5,6,7,8,9,10,11,12,13,14-tetradecahydro-[1]oxa[4,7,10,14]tetraazacycloheptadecino[17,16-c]quinoline-3-carboxamide] | – | – | 148 | 310 | –
9 | CC(C)C[C@H]1C(=O)N2CCCC[C@@H]2C(=O)N[C@H](Cc2ccccc2)COc2cnc3ccc(F)cc3c2C(=O)N[C@H](C(=O)NCCc2cc(C(F)(F)F)no2)CC(=O)N1C [Example 560, (9S,13S,19aR,22R)-22-benzyl-5-fluoro-13-isobutyl-12-methyl-7,11,14,20-tetraoxo-N-(2-(3-(trifluoromethyl)isoxazol-5-yl)ethyl)-7,8,9,10,11,12,13,14,17,18,19,19a,20,21,22,23-hexadecahydro-16H-pyrido[2′,1′:6,7][1]oxa[4,7,10,14]tetraazacycloheptadecino[17,16-c]quinoline-9-carboxamide] | – | – | – | – | EC50 [3]: 114 nM; Emax [4]: 249%
10 | COc1noc(CCNC(=O)[C@@H]2CC(=O)N(C)[C@@H](CC(C)C)C(=O)N(C)[C@H](Cc3nc(C(F)(F)F)no3)C(=O)N[C@H](Cc3ccccc3)COc3cc(C)nc(OC)c3C(=O)N2)n1 [Example 919, (3R,6R,9S,13S)-3-benzyl-9-isobutyl-16-methoxy-N-(2-(3-methoxy-1,2,4-oxadiazol-5-yl)ethyl)-7,10,18-trimethyl-5,8,11,15-tetraoxo-6-((3-(trifluoromethyl)-1,2,4-oxadiazol-5-yl)methyl)-2,3,4,5,6,7,8,9,10,11,12,13,14,15-tetradecahydropyrido[3,4-p][1]oxa[4,7,10,14]tetraazacycloheptadecine-13-carboxamide] | – | – | 104 | 443 | –
11 | COc1ccc2c(c1)C(=O)N[C@H](C(=O)NCCc1ccc3c(c1)OCCC3)CC(=O)N(C)[C@@H](CC(C)C)C(=O)N(C)CC(=O)N[C@H](Cc1ccccc1)CO2 [Example 245, (3R,9S,13S)-3-benzyl-N-(2-(chroman-7-yl)ethyl)-9-isobutyl-17-methoxy-7,10-dimethyl-5,8,11,15-tetraoxo-2,3,4,5,6,7,8,9,10,11,12,13,14,15-tetradecahydrobenzo[p][1]oxa[4,7,10,14]tetraazacycloheptadecine-13-carboxamide] | 260 | 174 | – | – | –
12 | Cc1cc2c(c3cccnc13)C(=O)N[C@H](C(=O)NCCc1noc(C3CC3)n1)CC(=O)N(C)[C@@H](CC(C)C)C(=O)N(C)[C@H](Cc1nc(C(F)(F)F)no1)C(=O)N[C@H](Cc1ccccc1)CO2 [Example 935, (3S,7S,10R,13R)-13-benzyl-N-(2-(5-cyclopropyl-1,2,4-oxadiazol-3-yl)ethyl)-7-isobutyl-6,9,17-trimethyl-1,5,8,11-tetraoxo-10-((3-(trifluoromethyl)-1,2,4-oxadiazol-5-yl)methyl)-1,2,3,4,5,6,7,8,9,10,11,12,13,14-tetradecahydro-[1]oxa[4,7,10,14]tetraazacycloheptadecino[16,17-f]quinoline-3-carboxamide] | – | – | 24 | 496 | –
13 | CC(C)C[C@H]1C(=O)N(C)[C@@H](CC2CCC(F)(F)CC2)C(=O)N[C@H](Cc2ccccc2)COc2cnc3ccc(F)cc3c2C(=O)N[C@H](C(=O)NCCc2noc(C3CC3)n2)CC(=O)N1C [Example 540, (3S,7S,10S,13R)-13-benzyl-N-(2-(5-cyclopropyl-1,2,4-oxadiazol-3-yl)ethyl)-10-((4,4-difluorocyclohexyl)methyl)-20-fluoro-7-isobutyl-6,9-dimethyl-1,5,8,11-tetraoxo-1,2,3,4,5,6,7,8,9,10,11,12,13,14-tetradecahydro-[1]oxa[4,7,10,14]tetraazacycloheptadecino[17,16-c]quinoline-3-carboxamide] | – | – | – | – | EC50 [3]: 269 nM; Emax (in relation to Emax of corrector lumacaftor (=100%), arithmetic mean values): 256%
14 | COc1cc2c(cc1OC)C(=O)N[C@H](C(=O)NCCc1ccc3c(c1)OCO3)CC(=O)N(C)[C@@H](CC(C)C)C(=O)N(CCC(C)(C)OC)CC(=O)N[C@H](Cc1ccccc1)CO2 (mixture of isomers) [Example 156, (3R,9S,13RS)-N-(2-(benzo[d][1,3]dioxol-5-yl)ethyl)-3-benzyl-9-isobutyl-17,18-dimethoxy-7-(3-methoxy-3-methylbutyl)-10-methyl-5,8,11,15-tetraoxo-2,3,4,5,6,7,8,9,10,11,12,13,14,15-tetradecahydrobenzo[p][1]oxa[4,7,10,14]tetraazacycloheptadecine-13-carboxamide] | 647 | 123 | – | – | –
